Source: ChEMBL document CHEMBL1144784, “A novel series of potent and selective ketone histone deacetylase inhibitors with antitumor activity in vivo” (J Med Chem, 2008)

Columns and labels:
HeLa = experiment: Antiproliferative activity against human HeLa cells by CellTiter-Blue cell viability assay; assay type: functional, cell-based
Plasma [1] = experiment: Stability in human plasma at 5 uM after 24 hrs; assay type: ADME, cell-free
Plasma [2] = experiment: Stability in dog plasma at 5 uM after 24 hrs; assay type: ADME, cell-free, Canis lupus familiaris
Plasma [3] = experiment: Stability in rat plasma at 5 uM after 24 hrs; assay type: ADME, cell-free
Plasma [4] = experiment: Stability in mouse plasma at 5 uM after 24 hrs; assay type: ADME, cell-free
[5] = AUC (0 to infinity) in Sprague-Dawley rat at 3 mg/kg, iv; assay type: ADME, organism-based; design: dose 3 mg/kg, route intravenous, time infinity; conditions: plasma
[6] = Clearance in Sprague-Dawley rat plasma at 3 mg/kg, iv; assay type: ADME, organism-based; design: dose 3 mg/kg, route intravenous
Histone deacetylase 1 = Histone deacetylase 1 (Homo sapiens, UniProt Q13547)
Chain of Histone deacetylase 1 (Q13547 whole entry): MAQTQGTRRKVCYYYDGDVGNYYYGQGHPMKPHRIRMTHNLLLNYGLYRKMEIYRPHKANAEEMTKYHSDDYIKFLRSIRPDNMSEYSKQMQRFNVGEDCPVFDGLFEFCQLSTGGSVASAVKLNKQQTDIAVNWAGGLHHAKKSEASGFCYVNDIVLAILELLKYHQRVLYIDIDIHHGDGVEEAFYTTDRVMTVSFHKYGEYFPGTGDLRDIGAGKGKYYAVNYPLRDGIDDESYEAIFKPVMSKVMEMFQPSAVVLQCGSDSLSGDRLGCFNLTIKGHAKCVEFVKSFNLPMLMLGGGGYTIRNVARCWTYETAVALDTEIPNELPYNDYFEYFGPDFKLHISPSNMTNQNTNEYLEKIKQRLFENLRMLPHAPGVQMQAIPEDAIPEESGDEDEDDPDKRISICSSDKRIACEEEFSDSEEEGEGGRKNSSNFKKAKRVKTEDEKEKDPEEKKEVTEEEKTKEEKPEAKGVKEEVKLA

Histone deacetylase 2 = Histone deacetylase 2 (Homo sapiens, UniProt Q92769)
Chain of Histone deacetylase 2 (Q92769 whole entry): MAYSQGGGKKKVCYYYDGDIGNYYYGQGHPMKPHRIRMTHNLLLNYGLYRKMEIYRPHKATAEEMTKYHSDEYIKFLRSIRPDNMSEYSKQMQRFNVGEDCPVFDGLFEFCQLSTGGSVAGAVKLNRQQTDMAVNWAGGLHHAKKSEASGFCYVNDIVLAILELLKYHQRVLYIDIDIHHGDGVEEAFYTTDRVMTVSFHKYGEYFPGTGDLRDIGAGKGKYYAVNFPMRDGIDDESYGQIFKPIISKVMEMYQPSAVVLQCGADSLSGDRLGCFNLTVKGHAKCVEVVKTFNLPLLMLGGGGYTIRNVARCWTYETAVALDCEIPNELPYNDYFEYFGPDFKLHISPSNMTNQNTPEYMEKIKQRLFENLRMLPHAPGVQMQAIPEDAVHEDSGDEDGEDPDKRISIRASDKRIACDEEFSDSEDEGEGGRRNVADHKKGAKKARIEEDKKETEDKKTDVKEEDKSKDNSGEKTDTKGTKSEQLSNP

Histone deacetylase 3 = Histone deacetylase 3 (Homo sapiens, UniProt O15379)
Chain of Histone deacetylase 3 (O15379 whole entry): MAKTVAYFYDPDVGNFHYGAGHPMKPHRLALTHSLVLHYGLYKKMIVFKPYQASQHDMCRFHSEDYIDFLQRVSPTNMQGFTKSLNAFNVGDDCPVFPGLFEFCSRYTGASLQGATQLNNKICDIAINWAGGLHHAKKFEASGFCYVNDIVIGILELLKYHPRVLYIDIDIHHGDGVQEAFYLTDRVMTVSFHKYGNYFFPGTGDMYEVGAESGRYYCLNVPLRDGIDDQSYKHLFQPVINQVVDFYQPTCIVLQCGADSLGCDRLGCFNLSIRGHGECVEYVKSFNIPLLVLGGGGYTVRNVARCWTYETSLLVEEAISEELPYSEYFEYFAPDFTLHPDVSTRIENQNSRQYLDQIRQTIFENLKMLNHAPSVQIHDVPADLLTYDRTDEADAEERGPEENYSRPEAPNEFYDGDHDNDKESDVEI

Histone deacetylase 4 [7] = target: T1, Histone deacetylase 4 (Homo sapiens, UniProt P56524); experiment: Inhibition of HDAC4 expressed in Escherichia coli
Target sequence in this assay (P56524 whole entry): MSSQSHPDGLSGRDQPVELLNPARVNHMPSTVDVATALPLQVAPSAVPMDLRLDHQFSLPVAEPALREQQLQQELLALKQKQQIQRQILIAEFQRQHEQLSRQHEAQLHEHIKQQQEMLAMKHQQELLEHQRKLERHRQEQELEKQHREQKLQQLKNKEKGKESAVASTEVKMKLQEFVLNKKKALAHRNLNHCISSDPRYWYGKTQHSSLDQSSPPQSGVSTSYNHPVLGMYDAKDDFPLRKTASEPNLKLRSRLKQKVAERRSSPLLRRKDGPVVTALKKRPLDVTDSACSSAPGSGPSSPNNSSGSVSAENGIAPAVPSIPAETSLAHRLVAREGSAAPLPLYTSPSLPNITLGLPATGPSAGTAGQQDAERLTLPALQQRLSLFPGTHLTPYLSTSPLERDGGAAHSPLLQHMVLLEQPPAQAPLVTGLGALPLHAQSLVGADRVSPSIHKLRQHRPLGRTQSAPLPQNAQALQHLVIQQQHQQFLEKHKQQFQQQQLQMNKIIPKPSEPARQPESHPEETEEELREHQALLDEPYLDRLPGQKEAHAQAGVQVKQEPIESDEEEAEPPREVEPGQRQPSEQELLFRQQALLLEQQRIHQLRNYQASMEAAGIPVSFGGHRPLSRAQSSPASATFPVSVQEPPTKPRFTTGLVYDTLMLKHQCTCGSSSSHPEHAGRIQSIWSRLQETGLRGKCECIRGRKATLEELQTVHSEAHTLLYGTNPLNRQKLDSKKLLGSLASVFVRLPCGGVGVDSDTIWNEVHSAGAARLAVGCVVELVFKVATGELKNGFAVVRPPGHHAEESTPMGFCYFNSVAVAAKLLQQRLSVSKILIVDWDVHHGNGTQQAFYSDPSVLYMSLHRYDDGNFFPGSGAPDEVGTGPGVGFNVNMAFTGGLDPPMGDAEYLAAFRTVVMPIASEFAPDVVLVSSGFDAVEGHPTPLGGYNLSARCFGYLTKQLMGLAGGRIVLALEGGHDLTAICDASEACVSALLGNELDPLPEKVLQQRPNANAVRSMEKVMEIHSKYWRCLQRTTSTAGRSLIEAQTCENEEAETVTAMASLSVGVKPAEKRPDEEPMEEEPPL

Histone deacetylase 4 [8] = target: T1, Histone deacetylase 4; experiment: Inhibition of HDAC4 gain-of-function phenotype expressed in Escherichia coli
Target sequence in this assay (P56524 whole entry, looked up): as the sequence (P56524 whole entry) above

Histone deacetylase 5 = Histone deacetylase 5 (Homo sapiens, UniProt Q9UQL6); experiment: Inhibition of HDAC5 expressed in Escherichia coli
Chain of Histone deacetylase 5 (Q9UQL6 whole entry): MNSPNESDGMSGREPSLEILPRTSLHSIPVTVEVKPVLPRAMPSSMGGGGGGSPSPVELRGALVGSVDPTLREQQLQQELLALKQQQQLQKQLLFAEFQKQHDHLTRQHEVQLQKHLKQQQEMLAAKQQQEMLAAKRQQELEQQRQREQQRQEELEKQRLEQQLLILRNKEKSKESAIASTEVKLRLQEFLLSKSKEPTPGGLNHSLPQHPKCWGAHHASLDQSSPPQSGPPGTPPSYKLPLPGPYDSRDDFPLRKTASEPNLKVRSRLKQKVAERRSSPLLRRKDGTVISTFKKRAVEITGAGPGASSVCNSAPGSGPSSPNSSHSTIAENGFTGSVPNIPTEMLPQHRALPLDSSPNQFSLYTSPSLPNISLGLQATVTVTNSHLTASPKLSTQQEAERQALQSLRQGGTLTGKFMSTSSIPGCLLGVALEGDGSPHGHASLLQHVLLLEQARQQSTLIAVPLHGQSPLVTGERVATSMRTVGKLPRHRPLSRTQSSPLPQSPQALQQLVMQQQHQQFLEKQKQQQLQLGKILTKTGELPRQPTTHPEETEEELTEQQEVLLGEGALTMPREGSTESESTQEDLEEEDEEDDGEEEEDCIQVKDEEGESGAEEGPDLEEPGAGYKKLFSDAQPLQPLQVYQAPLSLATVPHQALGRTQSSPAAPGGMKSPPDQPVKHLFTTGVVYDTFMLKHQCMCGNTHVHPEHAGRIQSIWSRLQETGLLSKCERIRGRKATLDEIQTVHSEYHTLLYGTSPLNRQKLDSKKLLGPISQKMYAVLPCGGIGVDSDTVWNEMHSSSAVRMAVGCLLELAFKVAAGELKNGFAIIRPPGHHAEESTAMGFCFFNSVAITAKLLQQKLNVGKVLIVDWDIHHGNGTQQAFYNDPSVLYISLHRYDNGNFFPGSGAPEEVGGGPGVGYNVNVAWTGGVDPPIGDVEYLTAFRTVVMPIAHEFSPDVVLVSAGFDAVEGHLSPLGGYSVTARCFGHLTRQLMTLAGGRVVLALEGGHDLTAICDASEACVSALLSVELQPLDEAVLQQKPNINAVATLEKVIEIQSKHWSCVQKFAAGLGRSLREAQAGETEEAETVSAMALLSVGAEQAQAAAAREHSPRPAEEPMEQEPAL

Histone deacetylase 7 = target: T2, Histone deacetylase 7 (Homo sapiens, UniProt Q8WUI4); experiment: Inhibition of HDAC7 expressed in Escherichia coli
T2 sequence (Q8WUI4 whole entry): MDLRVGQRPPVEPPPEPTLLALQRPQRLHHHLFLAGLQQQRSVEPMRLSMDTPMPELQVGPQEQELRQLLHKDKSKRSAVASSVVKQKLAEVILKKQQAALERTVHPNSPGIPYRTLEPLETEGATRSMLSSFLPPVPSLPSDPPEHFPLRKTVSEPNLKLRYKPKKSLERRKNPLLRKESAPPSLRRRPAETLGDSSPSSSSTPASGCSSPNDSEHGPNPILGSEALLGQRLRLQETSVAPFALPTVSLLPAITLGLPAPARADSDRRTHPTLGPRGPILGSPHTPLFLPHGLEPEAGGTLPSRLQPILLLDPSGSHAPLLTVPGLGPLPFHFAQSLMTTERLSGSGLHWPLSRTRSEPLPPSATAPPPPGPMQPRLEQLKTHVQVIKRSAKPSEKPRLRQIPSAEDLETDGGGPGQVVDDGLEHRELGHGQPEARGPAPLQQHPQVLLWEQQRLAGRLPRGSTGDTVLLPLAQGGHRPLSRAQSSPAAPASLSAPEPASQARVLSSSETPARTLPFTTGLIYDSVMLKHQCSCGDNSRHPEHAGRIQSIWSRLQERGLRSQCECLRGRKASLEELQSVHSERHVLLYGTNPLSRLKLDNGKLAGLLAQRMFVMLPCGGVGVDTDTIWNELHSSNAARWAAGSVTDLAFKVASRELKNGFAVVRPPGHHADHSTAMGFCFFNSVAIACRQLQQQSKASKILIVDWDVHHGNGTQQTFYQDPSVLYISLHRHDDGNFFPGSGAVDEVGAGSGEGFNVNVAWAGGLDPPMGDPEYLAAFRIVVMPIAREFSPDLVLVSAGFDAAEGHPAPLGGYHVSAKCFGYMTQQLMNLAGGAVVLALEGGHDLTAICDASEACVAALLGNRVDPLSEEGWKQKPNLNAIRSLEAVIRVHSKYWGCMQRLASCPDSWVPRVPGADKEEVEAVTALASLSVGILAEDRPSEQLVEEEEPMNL

Histone deacetylase 8 = target: T3, Histone deacetylase 8 (Homo sapiens, UniProt Q9BY41); experiment: Inhibition of HDAC8 expressed in Escherichia coli
T3 sequence (Q9BY41 whole entry): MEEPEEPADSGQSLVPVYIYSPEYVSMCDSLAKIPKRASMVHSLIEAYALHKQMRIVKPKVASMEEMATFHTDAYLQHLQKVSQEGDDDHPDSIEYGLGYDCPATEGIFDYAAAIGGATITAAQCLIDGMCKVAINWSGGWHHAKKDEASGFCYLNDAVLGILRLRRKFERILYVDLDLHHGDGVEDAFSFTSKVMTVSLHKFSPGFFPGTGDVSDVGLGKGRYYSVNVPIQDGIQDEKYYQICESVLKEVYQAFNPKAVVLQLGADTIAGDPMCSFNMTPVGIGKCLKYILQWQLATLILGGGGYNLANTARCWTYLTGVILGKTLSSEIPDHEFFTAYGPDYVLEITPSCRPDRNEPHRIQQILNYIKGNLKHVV

HCT-116 [9] = experiment: Antiproliferative activity against human HCT116 cells by CellTiter-Blue cell viability assay; assay type: functional, cell-based
A549 = experiment: Antiproliferative activity against human A549 cells by CellTiter-Blue cell viability assay; assay type: functional, cell-based
G-401 = experiment: Antiproliferative activity against human G401 cells by CellTiter-Blue cell viability assay; assay type: functional, cell-based
A2780 = experiment: Antiproliferative activity against human A2780 cells by CellTiter-Blue cell viability assay; assay type: functional, cell-based
[10] = Antiproliferative activity against human renal epithelial cells by CellTiter-Blue cell viability assay; assay type: ADME, cell-based
Plasma [11] = experiment: Stability in human plasma at 5 uM after 4 hrs; assay type: ADME, cell-free
Plasma [12] = experiment: Stability in dog plasma at 5 uM after 4 hrs; assay type: ADME, cell-free, Canis lupus familiaris
Plasma [13] = experiment: Stability in rat plasma at 5 uM after 4 hrs; assay type: ADME, cell-free
Plasma [14] = experiment: Stability in mouse plasma at 5 uM after 4 hrs; assay type: ADME, cell-free
[15] = target: T4, Protein deacetylase HDAC6 (Homo sapiens, UniProt Q9UBN7)
T4 sequence (Q9UBN7 whole entry): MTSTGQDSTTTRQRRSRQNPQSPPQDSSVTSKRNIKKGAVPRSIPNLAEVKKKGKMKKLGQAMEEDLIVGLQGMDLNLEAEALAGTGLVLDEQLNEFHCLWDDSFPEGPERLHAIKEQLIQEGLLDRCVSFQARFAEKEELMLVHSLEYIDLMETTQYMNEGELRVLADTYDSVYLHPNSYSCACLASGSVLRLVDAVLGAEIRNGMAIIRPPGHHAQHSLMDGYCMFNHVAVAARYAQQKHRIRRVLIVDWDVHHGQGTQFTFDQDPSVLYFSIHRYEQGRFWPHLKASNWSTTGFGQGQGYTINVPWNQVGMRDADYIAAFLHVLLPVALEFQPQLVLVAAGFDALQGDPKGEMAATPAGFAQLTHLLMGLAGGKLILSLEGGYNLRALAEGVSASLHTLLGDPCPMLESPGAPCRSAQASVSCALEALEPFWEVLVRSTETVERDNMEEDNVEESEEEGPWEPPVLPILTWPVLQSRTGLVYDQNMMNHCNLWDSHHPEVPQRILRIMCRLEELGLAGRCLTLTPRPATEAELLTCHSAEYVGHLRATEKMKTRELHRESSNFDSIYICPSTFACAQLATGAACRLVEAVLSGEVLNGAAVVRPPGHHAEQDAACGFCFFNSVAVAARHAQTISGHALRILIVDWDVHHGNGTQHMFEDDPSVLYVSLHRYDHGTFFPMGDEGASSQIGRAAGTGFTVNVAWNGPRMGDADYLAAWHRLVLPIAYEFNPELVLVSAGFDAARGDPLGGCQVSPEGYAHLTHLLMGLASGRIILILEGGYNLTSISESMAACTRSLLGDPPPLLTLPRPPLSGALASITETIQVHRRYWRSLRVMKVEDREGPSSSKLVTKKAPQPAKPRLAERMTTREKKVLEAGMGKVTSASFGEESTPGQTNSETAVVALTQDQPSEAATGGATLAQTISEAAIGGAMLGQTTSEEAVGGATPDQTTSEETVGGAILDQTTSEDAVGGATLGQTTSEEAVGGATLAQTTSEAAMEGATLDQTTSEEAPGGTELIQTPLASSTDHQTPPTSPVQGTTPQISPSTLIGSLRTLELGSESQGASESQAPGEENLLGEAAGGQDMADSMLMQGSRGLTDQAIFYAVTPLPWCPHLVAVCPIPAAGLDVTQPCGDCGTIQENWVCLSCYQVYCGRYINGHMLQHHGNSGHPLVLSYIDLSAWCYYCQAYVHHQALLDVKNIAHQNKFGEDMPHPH

Mus musculus [16] = experiment: Toxicity against human HCT116 cells xenografted BALB/c mouse assessed as body weight loss at 100 mg/kg, ip administered 5 days per week for 2.5 weeks; assay type: organism-based, HCT-116; design: dose 100 mg/kg, route intraperitoneal; conditions: in vivo
Mus musculus [17] = experiment: Toxicity against human HCT116 cells xenografted BALB/c mouse assessed as body weight loss at 60 mg/kg, ip administered 5 days per week for 2.5 weeks; assay type: organism-based, HCT-116; design: dose 60 mg/kg, route intraperitoneal; conditions: in vivo
[18] = Toxicity in ip dosed BALB/c mouse assessed as maximum tolerated dose; assay type: organism-based; conditions: in vivo
[19] = Intrinsic clearance in human liver microsomes; assay type: ADME, Microsome
[20] = Intrinsic clearance in Sprague-Dawley rat liver microsomes; assay type: ADME, Microsome
[21] = Clearance in Sprague-Dawley rat plasma; assay type: ADME, organism-based
[22] = Terminal half life in Sprague-Dawley rat; assay type: ADME, organism-based; conditions: in vivo
[23] = Oral bioavailability in Sprague-Dawley rat; assay type: ADME, organism-based; conditions: in vivo
HCT-116 [24] = experiment: Antitumor activity against human HCT116 cells xenografted BALB/c mouse assessed as tumor growth inhibition at 60 mg/kg, ip administered for 5 days per week for 2.5 weeks; conditions: HCT-116, ip, read-out: TGI
Mus musculus [25] = experiment: Toxicity against human HCT116 cells xenografted BALB/c mouse assessed as body weight loss at 25 mg/kg, ip administered 5 days per week for 2.5 weeks; assay type: organism-based, HCT-116; design: dose 25 mg/kg, route intraperitoneal; conditions: in vivo
[26] = target: T5, Protein deacetylase HDAC6 (Homo sapiens) (UniProt Q9UBN7); experiment: Inhibition of HDAC6 at 10 uM
T5 sequence (whole entry): T4 sequence (Q9UBN7 whole entry)

[27] = target: T6, Histone deacetylase 8 (Homo sapiens) (UniProt Q9BY41); conditions: 10 uM
T6 sequence (whole entry): T3 sequence (Q9BY41 whole entry)
Description: Inhibition of HDAC8 expressed in Escherichia coli at 10 uM

SMILES | IC50 (HeLa) [nM] | IC50 (Histone deacetylase 1) [nM] | IC50 (Histone deacetylase 2) [nM] | IC50 (Histone deacetylase 3) [nM] | IC50 (Histone deacetylase 4 [7]) [nM] | IC50 (Histone deacetylase 4 [8]) [nM] | IC50 (Histone deacetylase 5) [nM] | IC50 (Histone deacetylase 7) [nM] | IC50 (Histone deacetylase 8) [nM] | IC50 (HCT-116 [9]) [nM] | IC50 (A549) [nM] | IC50 (G-401) [nM] | IC50 (A2780) [nM] | IC50 [10] [nM] | Stability (Plasma [11]) | Stability (Plasma [12]) | Stability (Plasma [13]) | Stability (Plasma [14]) | IC50 [15] [nM] | MTD [18] [mg/kg] | other results
CC(=O)CCCCC[C@H](NC(=O)CCN1CCCCC1)C(=O)Nc1cnc2ccccc2c1.Cl.Cl | 2000 | 140 |  |  |  |  |  |  |  |  |  |  |  |  |  |  |  |  |  |  | Stability (Plasma [1]): Stable; Stability (Plasma [2]): Stable; Activity (Plasma [3]): Not Active; Activity (Plasma [4]): Not Active; AUC(0-inf) [5]: 0.05 µM·h; clearance [6]: > 150 mL/min/kg
O=C(CCCCCCC(=O)Nc1ccccc1)NO [VORINOSTAT] |  |  |  |  |  |  |  |  |  |  |  |  |  |  |  |  |  |  |  |  | Activity (Mus musculus [16]): < 10%
COc1ccc2[nH]c(C)c(CC(=O)N[C@@H](CCCCCC(C)=O)c3ncc(-c4ccccc4)[nH]3)c2c1 | 880 | 59 | 110 | 120 | > 10000 | 6000 | > 10000 | > 10000 | > 5000 | 500 | 6300 | 960 | 2200 | 16000 | Stable | Stable | Stable | Stable | 340 | 60 | Activity (Mus musculus [17]): < 10%; microsomal CLint [19]: > 400 µL/min/mg; microsomal CLint [20]: > 400 µL/min/mg; clearance [21]: 80 mL/min/kg; half-life [22]: 1.3 h; bioavailability [23]: 15%
Nc1ccccc1NC(=O)c1ccc(CNC(=O)OCc2cccnc2)cc1 [ENTINOSTAT] |  |  |  |  |  |  |  |  |  | 700 | 1200 | 1300 | 3000 | > 20000 |  |  |  |  |  | 25 | inhibition in vivo at 60 mg/kg (HCT-116 [24]): 69%; Activity (Mus musculus [25]): < 10%

Now from value to molecule, other results behind:

IC50 (HeLa) [nM] | IC50 (Histone deacetylase 1) [nM] | IC50 (Histone deacetylase 2) [nM] | IC50 (Histone deacetylase 3) [nM] | IC50 (Histone deacetylase 4 [7]) [nM] | IC50 (Histone deacetylase 4 [8]) [nM] | IC50 (Histone deacetylase 5) [nM] | IC50 (Histone deacetylase 7) [nM] | SMILES | IC50 (Histone deacetylase 8) [nM] | IC50 (HCT-116 [9]) [nM] | IC50 (A549) [nM] | IC50 (G-401) [nM] | IC50 (A2780) [nM] | IC50 [10] [nM] | Stability (Plasma [11]) | Stability (Plasma [12]) | Stability (Plasma [13]) | Stability (Plasma [14]) | IC50 [15] [nM] | MTD [18] [mg/kg] | other results
3100 | 670 | 880 | 1000 | > 10000 | 4200 | > 10000 | > 10000 | COc1ccc2[nH]c(C)c(CC(=O)N[C@@H](CCCCCC(C)=O)c3nc4ccc(Cl)cc4[nH]3)c2c1 | > 10000 | 4200 | 8200 | 7500 | 11000 | 41000 | Stable | Stable | Stable | Stable | 970 |  | 
340 | 26 | 59 | 48 | > 10000 | > 10000 | > 10000 | > 10000 | CCC(=O)CCCCC[C@H](NC(=O)Cc1c(C)[nH]c2ccc(OC)cc12)c1ncc(-c2ccccc2)[nH]1 |  | 330 | 5200 | 250 | 420 | 5300 |  |  |  |  |  |  | inhibition [26]: 40%; inhibition [27]: 40%
